# Data published in publication PMC7450057, “Enhancing intracellular accumulation and target engagement of PROTACs with reversible covalent chemistry” (Nature Communications, 2020).
# “And” between values parts separate entries of the source, which are not always exact repeats. Equal values may be shown once. “Also recorded” adds a separate entry of the source.
# Tests used:
# [1] = system: MOLM-14 cells; experiment: Quantitative multiplexed (TMT) proteomics of compound-treated cells; assay type: cell-based, Homo sapiens; details: 200 nM, 24 h
# Method: For proteomic study of the cellular protein profile following BTK degradation, MOLM-14 cells were treated in duplicate with 200 nM of RC-1, RNC-1, IRC-1, or RC-1-Me for 24 h, and then the cells were collected and processed for proteomics analysis (Sanford Burnham Prebys Medical Discovery Institute, La Jolla, California).
# For cell lysis and protein digestion, cells were lysed with vigorous shaking (20 Hz for 10 min at room temperature by Retsch MM301 instrument) in 0.5 mL of lysis buffer (8 M urea, 50 mM ammonium bicarbonate (ABC); plus Benzonase 24U/100 ml), and extracted proteins were centrifuged at 14,000 × g for 10 min to remove cellular debris. Supernatant protein concentration was determined using a bicinchoninic acid (BCA) protein assay. Following quantification, the proteins were digested in solution. First, protein disulfide bonds were reduced with 5 mM tris(2-carboxyethyl)phosphine (TCEP) at 30 °C for 60 min, alkylated (carbamidomethylated) with 15 mM iodoacetamide (IAA) in the dark at room temperature for 30 min. Urea was then diluted to 1 M urea using 50 mM ammonium bicarbonate, and proteins were subjected to overnight digestion with mass spec grade Trypsin/Lys-C mix. Following digestion, samples were acidified with formic acid (FA) and subsequently desalted using Waters Sep-Pak C18. Cartridges were sequentially conditioned with 100% acetonitrile (ACN) and 0.1% FA, samples were then loaded, washed with 0.1% FA, and peptides eluted with 60% ACN, 0.1% FA. Finally, the organic solvent was removed in a SpeedVac concentrator prior to LC-MS/MS analysis.
# Prior to TMT labeling, sample peptide amount was quantified using a NanoDrop^TM spectrophotometer (ThermoFisher). Samples were labeled according to the table schematic shown below using our TMT protocol. Briefly, a normalized amount of peptides sample was resuspended in 200 mM HEPES pH 8, and then labeled with one of the TMT10-plex reagents for 1 h at room temperature. TMT labels/channels were as follows:
# Reactions were quenched with 5% hydroxylamine solution. The 10 samples were then combined, dried down in a SpeedVac system, resuspended in 0.1% FA, and desalted as described above. After desalting, the organic solvent was removed in a SpeedVac concentrator.
# Dried samples were reconstituted in 20 mM ammonium formate pH ~10, and fractionated by high pH reverse phase using a Waters Acquity CSH C18 2.1-µm 1 × 150 mm column mounted on an M-Class Ultra Performance Liquid Chromatography (UPLC) system (Waters corp., Milford, MA). […] A total of 36 fractions were collected and pooled in a non-contiguous manner into 18 total fractions: 1 + 19, 2 + 20, 3 + 21, 4 + 22, 5 + 23, 6 + 24, 7 + 25, 8 + 26, 9 + 27, 10 + 28, 11 + 29, 12 + 30, 13 + 31, 14 + 32, 15 + 33, 16 + 34, 17 + 35, and 18 + 36. Pooled fractions were dried to completeness in a SpeedVac concentrator.
# Dried fractions were reconstituted with 2% ACN-0.1% FA and analyzed by LC-MS/MS using a nanoACQUITY system (Waters) coupled to an Orbitrap Fusion Lumos mass spectrometer (Thermo Fisher Scientific). […] The mass spectrometer was operated in positive data-dependent acquisition mode. MS1 spectra were measured in the Orbitrap with a resolution of 60,000 (AGC target: 4e5; maximum injection time: 50 ms; mass range: from 350 to 1500 m/z). The instrument was set to run in top speed mode with 3 s cycles for the survey and the MS/MS scans. After a survey scan, tandem MS was performed in the Ion Routing Multipole HCD-Cell on the most abundant precursors by isolating them in the quadrupole (Isolation window: 0.7 m/z; charge state: +2–7; collision energy: 35%). […] The dynamic exclusion was set to 20 s with a 10-ppm mass tolerance around the precursor and its isotopes.
# For data analysis, all mass spectra were analyzed with MaxQuant software version 1.5.5.1. MS/MS spectra were searched against the Homo sapiens Uniprot protein sequence database (version January 2018) and GPM cRAP sequences (commonly known protein contaminants). […]
# [2] = system: MOLM-14 cells; experiment: Quantification of intracellular drug concentration by LC-MS; assay type: in vitro ADME; details: for Intracellular concentration: Concentration of compound, AVE / intracellular amount, AVE / intracellular amount / Intracellular concentration: Concentration of compound: 200 nM; for Intracellular concentration: Concentration of compound, AVE / intracellular amount, AVE: average of 3 replicates; for intracellular amount: initial amount 0.4000 nmol; for Intracellular concentration: Concentration of compound: sample volume 400 µL
# Method: MOLM-14 cells were seeded at a density of 0.5 × 10^6 per mL in 2 mL medium. […] The samples were immediately centrifuged at 12,000 × g for 15 min at 4 °C, then removing the supernatant. In all, 400 μL of NP-40 lysis buffer was added to the cell pellet and mixed thoroughly. The mixtures were rocked for 1 h at 4 °C and centrifuged at 12,000 × g for 15 min at 4 °C. Then the supernatant was transferred to new EP tubes. In total, 20 µL supernatant was extracted with 180 µL of acetonitrile (containing internal standard: 250 nM of RNC-Ctrl) and centrifuged at the same conditions described above. Take 75 μL of supernatant for liquid chromatography-mass spectrometry analysis.
# The mass spectrometer was operated in positive SIM ion mode (fragmentor 120 V; cycle time 0.6 s/cycle; Agilent Technologies 6130 Quadrupole LC/MS).
smiles,measurement,setting,value
CN(CCCNC(=O)CNc1cccc2c1C(=O)N(C1CCC(=O)NC1=O)C2=O)C(C)(C)C=C(C#N)C(=O)N1CCC[C@@H](n2nc(-c3ccc(Oc4ccccc4)cc3)c3c(N)ncnc32)C1 (stereo partly drawn) [RC-1],"degradation of IMiD-dependent substrates IKZF1, ZFP91, ZNF692",[1],specifically degraded
same,kinases degraded (proteomics),[1],only two kinases (BTK and CSK) can be degraded; also recorded: only degrades BTK and CSK
same,"Intracellular concentration: Concentration of compound, AVE",[2]; 5 min,0.1304 µM
same,"intracellular amount, AVE",[2]; 5 min,0.0522 nmol
same,intracellular amount,"[2]; 5 min, single replicates",0.0607 nmol and 0.0507 nmol and 0.0451 nmol
same,Intracellular concentration: Concentration of compound,"[2]; 5 min, single replicates",0.1517 µM and 0.1267 µM and 0.1128 µM
same,"Intracellular concentration: Concentration of compound, AVE",[2]; 15 min,0.1127 µM
same,"intracellular amount, AVE",[2]; 15 min,0.0451 nmol
same,intracellular amount,"[2]; 15 min, single replicates",0.0487 nmol and 0.0414 nmol and 0.0451 nmol
same,Intracellular concentration: Concentration of compound,"[2]; 15 min, single replicates",0.1218 µM and 0.1035 µM and 0.1128 µM
same,"Intracellular concentration: Concentration of compound, AVE",[2]; 30 min,0.1159 µM
same,"intracellular amount, AVE",[2]; 30 min,0.0464 nmol
same,intracellular amount,"[2]; 30 min, single replicates",0.0474 nmol and 0.0471 nmol and 0.0447 nmol
same,Intracellular concentration: Concentration of compound,"[2]; 30 min, single replicates",0.1184 µM and 0.1177 µM and 0.1117 µM
same,"Intracellular concentration: Concentration of compound, AVE",[2]; 60 min,0.1117 µM
same,"intracellular amount, AVE",[2]; 60 min,0.0447 nmol
same,intracellular amount,"[2]; 60 min, single replicates",0.0471 nmol and 0.0390 nmol and 0.0480 nmol
same,Intracellular concentration: Concentration of compound,"[2]; 60 min, single replicates",0.1177 µM and 0.0975 µM and 0.1199 µM
same,"Intracellular concentration: Concentration of compound, AVE",[2]; 90 min,0.1080 µM
same,"intracellular amount, AVE",[2]; 90 min,0.0432 nmol
same,intracellular amount,"[2]; 90 min, single replicates",0.0436 nmol and 0.0454 nmol and 0.0405 nmol
same,Intracellular concentration: Concentration of compound,"[2]; 90 min, single replicates",0.1091 µM and 0.1136 µM and 0.1013 µM
same,"Intracellular concentration: Concentration of compound, AVE",[2]; 120 min,0.1194 µM
same,"intracellular amount, AVE",[2]; 120 min,0.0478 nmol
same,intracellular amount,"[2]; 120 min, single replicates",0.0460 nmol and 0.0513 nmol
same,Intracellular concentration: Concentration of compound,"[2]; 120 min, single replicates",0.1151 µM and 0.1282 µM
same,"Intracellular concentration: Concentration of compound, AVE",[2]; 240 min,0.1060 µM
same,"intracellular amount, AVE",[2]; 240 min,0.0424 nmol
same,intracellular amount,"[2]; 240 min, single replicates",0.0426 nmol and 0.0421 nmol and 0.0424 nmol
same,Intracellular concentration: Concentration of compound,"[2]; 240 min, single replicates",0.1065 µM and 0.1054 µM and 0.1061 µM
same,Cellular concentration,"[2]; 5 min, Mean",0.0522 nmol/million cells
same,Cellular concentration,"[2]; 5 min, single replicates, MOLM-14, 200 nM",0.0607 nmol/million cells and 0.0507 nmol/million cells and 0.0451 nmol/million cells
same,Cellular concentration,"[2]; 15 min, Mean",0.0451 nmol/million cells
same,Cellular concentration,"[2]; 15 min, single replicates, MOLM-14, 200 nM",0.0487 nmol/million cells and 0.0414 nmol/million cells and 0.0451 nmol/million cells
same,Cellular concentration,"[2]; 30 min, Mean",0.0464 nmol/million cells
same,Cellular concentration,"[2]; 30 min, single replicates, MOLM-14, 200 nM",0.0474 nmol/million cells and 0.0471 nmol/million cells and 0.0447 nmol/million cells
same,Cellular concentration,"[2]; 60 min, Mean",0.0447 nmol/million cells
same,Cellular concentration,"[2]; 60 min, single replicates, MOLM-14, 200 nM",0.0390 nmol/million cells and 0.0480 nmol/million cells and 0.0471 nmol/million cells and 0.039 nmol/million cells and 0.048 nmol/million cells
same,Cellular concentration,"[2]; 90 min, Mean",0.0432 nmol/million cells
same,Cellular concentration,"[2]; 90 min, single replicates, MOLM-14, 200 nM",0.0436 nmol/million cells and 0.0454 nmol/million cells and 0.0405 nmol/million cells
same,Cellular concentration,"[2]; 120 min, Mean",0.0478 nmol/million cells
same,Cellular concentration,"[2]; 120 min, single replicates, MOLM-14, 200 nM",0.0460 nmol/million cells and 0.046 nmol/million cells and 0.0513 nmol/million cells
same,Cellular concentration,"[2]; 240 min, Mean",0.0424 nmol/million cells
same,Cellular concentration,"[2]; 240 min, single replicates, MOLM-14, 200 nM",0.0426 nmol/million cells and 0.0421 nmol/million cells and 0.0424 nmol/million cells
same,intracellular concentration of RC-1 relative to RNC-1 and IRC-1,[2]; LC-MS of cell lysates,~ 2 fold
